Data taken from ChEMBL document CHEMBL4266042, “Total Synthesis of Norsampsones A and B, Garcinielliptones N and O, and Hyperscabrin A” (J Nat Prod, 2018).

Legend:
Assay type in all cases: functional, cell-based
A549 = experiment: Cytotoxicity against human A549 cells after 3 to 5 days by CellTiter-Glo assay
KMS-11 = experiment: Cytotoxicity against human KMS11 cells after 3 to 5 days by CellTiter-Glo assay
SNU1 = experiment: Cytotoxicity against human SNU1 cells after 3 to 5 days by CellTiter-Glo assay
786-0 = experiment: Cytotoxicity against human 786-O cells after 3 to 5 days by CellTiter-Glo assay

Measured: IC50

CC(C)=CC[C@@H]1C[C@H](CC=C(C)C)C(C)(C)[C@@H](C(=O)C(C)C)C1=O
> 10 µM: all assays above

COC(=O)[C@]1(CC=C(C)C)C[C@H](CC=C(C)C)C(C)(C)[C@@H](C(=O)C(C)C)C1=O
> 10 µM: all assays above

CC(C)=CCCC(=O)[C@]1(CC=C(C)C)C[C@H](CC=C(C)C)C(C)(C)[C@@H](C(=O)c2ccccc2)C1=O
> 10 µM: all assays above

CC(C)=CC[C@@H]1C[C@H](CC=C(C)C)C(C)(C)[C@H](C(=O)C(C)C)C1=O
> 10 µM: all assays above

COC(=O)[C@]1(CC=C(C)C)C[C@H](CC=C(C)C)C(C)(C)[C@H](C(=O)C(C)C)C1=O
> 10 µM: all assays above

CC(C)=CCCC(=O)[C@]1(CC=C(C)C)C[C@H](CC=C(C)C)C(C)(C)[C@H](C(=O)c2ccccc2)C1=O
> 10 µM: all assays above

COC(=O)[C@@]1(CC=C(C)C)C[C@H](CC=C(C)C)C(C)(C)[C@H](C(=O)C(C)C)C1=O
> 10 µM: all assays above
